Measured values reported in patent US10221426B2, “Constitutively active PYR/PYL receptor proteins for improving plant stress tolerance” (The Regents of the University of California, priority 2009, dated 2019).

Experiments:
[1] = target: T1, PYR1-HAB1 (Arabidopsis thaliana, UniProt O49686); assay: Yeast two-hybrid BD-PYR1 / AD-HAB1 interaction, X-gal stain; type: cell-based; conditions: 10 μM, except epi-brassinolide (50 nM)
T1 construct: the Pyr1 open reading frame was PCR amplified from genomic DNA; expressed in transfected cells; host or cells: yeast strain Y190
T1 sequence (O49686 1-191): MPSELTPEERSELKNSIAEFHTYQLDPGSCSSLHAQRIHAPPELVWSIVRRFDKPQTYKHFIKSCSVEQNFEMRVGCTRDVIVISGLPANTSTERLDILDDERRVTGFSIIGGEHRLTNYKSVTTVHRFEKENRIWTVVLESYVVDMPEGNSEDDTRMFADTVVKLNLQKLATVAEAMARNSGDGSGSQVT
T1 sequence (Q9CAJ0 23-511 partner): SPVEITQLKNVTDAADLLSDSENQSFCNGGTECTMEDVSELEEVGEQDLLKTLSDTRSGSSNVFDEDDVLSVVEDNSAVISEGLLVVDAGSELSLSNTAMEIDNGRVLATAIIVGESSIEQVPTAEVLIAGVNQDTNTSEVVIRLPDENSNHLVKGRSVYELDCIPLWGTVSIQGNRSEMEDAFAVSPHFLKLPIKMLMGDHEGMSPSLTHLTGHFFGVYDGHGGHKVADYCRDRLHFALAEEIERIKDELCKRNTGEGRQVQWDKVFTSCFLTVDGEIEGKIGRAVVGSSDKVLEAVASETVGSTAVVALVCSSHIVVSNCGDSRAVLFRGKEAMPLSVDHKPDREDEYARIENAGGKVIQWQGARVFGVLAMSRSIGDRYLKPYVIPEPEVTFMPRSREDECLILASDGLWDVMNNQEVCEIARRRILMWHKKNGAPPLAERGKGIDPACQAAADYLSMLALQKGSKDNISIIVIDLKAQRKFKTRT
Procedure: (§1) Given that PYR1 is necessary for pyrabactin action and is a predicted ligand-binding protein, we hypothesized that pyrabactin agonizes ABA signaling by inducing a protein-protein interaction between PYR1 and a downstream effector. To test this, ˜2 million prey cDNA clones were screened against a PYR1 Y2H bait construct on media containing 10 μM pyrabactin. To create the PYR1 Y2H bait construct, the Pyr1 open reading frame was PCR amplified from genomic DNA and cloned to pGem-T easy vector (Promega). After sequence confirmation, the Pyr1 ORF was then cloned in-frame between EcoRI and SalI sites of the pBD-GAL4 Cam vector (Stratagene) and transformed into yeast strain Y190. For the screen, an etiolated seedling cDNA library (J. Kim, K., Harter, A., Theologis, Proc Natl Acad Sci USA 94, 11786 (Oct. 28, 1997)) (ABRC stock CD4-22) was used. The cDNA library was first converted from phage to plasmid DNA, yielding 7.6×10^7 transformants. Plasmid DNA prepared from library was then used to transform Y190 as described in the GAL4 Two-Hybrid system manual (Stratagene). For each screen, 40 μg of prey plasmid was transformed into 1 ml of competent Y190 cell harboring bait construct and then grown on SD agar plates lacking His, Leu, and Trp, but containing 15 mM 3-AT and 10 μM pyrabactin. After 4 days incubation at 30° C., well-grown colonies were rescued and interactions validated using filter lift assay or chloroform-agarose overlay method and X-Gal staining. This identified two pyrabactin-dependent hits which sequencing determined encoded cDNAs for the PP2C HAB1, a close relative of the well-characterized ABA response factor ABI1 (A. Saez et al., The Plant Journal 37, 354 (2004); N. Leonhardt et al., THE PLANT CELL 16, 596 (2004)). Next, Y2H strains expressing an AD-HAB1 fusion protein and a BD-PYR1 fusion protein were grown on plates and tested for interactions in response to various compounds, all at 10 μM except for epi-brassinolide (50 nM) and dimethyl sulfoxide (DMSO) (carrier solvent, 1%). […] Thus, PYR1 interacts with HAB1 in a (+)-ABA dependent fashion.

[2] = tested on: Arabidopsis seeds; assay: Seed germination inhibition; type: in vivo; conditions: in vivo
Procedure: FIG. 1. Pyrabactin is a seed selective ABA agonist. (A) Structures of molecules described in this study. (B) Pyrabactin activity is suppressed by abi1-1. Seeds of the genotype shown at top were imbibed on media containing 25 μM pyrabactin and scored for germination 4 days after stratification. Shown at bottom are IC50 values for pyrabactin's germination effect on the genotypes characterized. (C) Microarray comparison of pyrabactin and ABA treatments in seeds. The Y-axis plots the log2 transformed value for a probe's response to 25 μM pyrabactin (relative to untreated control) and the X-axis a probe's response to 1 μM ABA. […] (D) Microarray comparison of cycloheximide and ABA responses in seeds. […] (E) Microarray comparison of pyrabactin and ABA responses in seedlings. Seven-day old seedlings were transferred to 10 μM ABA or 50 μM pyrabactin containing plates for 24 hours and then mRNA samples profiled. Inset in each scatter plot is the Pearson correlation coefficient for each comparison. Detailed microarray methods are described in the Examples section.
FIG. 2. PYR1 encodes an ABA responsive START-domain protein. (A) Pyr1 alleles. Shown are the allele names, strain names (in parentheses) and amino acid changes caused by the Pyr1 mutant alleles identified by screening for pyrabactin resistant mutations. (B) Pictographic representation of Pyr1 and Pyl1-Pyl4 expression values housed in public microarray databases. The heatmap shown at top right is for the first upper three panels and the bottom heatmap for the guard cell data. Plots were made using the eFP browser (D. Winter et al., PLoS ONE 2, e718 (2007)). (C) 35S::GFP-PYR1 complements pyr1-1. Seeds of the genotypes shown were stratified 4 days on 25 μM pyrabactin and then germinated at RT, 90% RH for 3 days in darkness. […] (D) Pyr/Pyls are required for normal ABA-induced gene expression in seedlings. Shown are qRT-PCR results for the ABA-responsive gene RD29. L, Ler; C, Col; and Q, quadruple mutant. (E) Pyr/Pyl genes are required for normal ABA-induced stress-induced gene expression in seedlings. Shown are qRT-PCR results for two ABA-responsive taqman probes, as described in the Examples section. L=Ler, C=Col, Q=quadruple mutant.
As part of an earlier effort, we identified a germination inhibitor named pyrabactin (Y. Zhao et al., Nat Chem Biol 3, 716 (2007)). […] To test this hypothesis, we examined the pyrabactin sensitivity of mutant lines with altered ABA signaling, biosynthesis or gibberellic acid (GA) perception.
We next performed microarray experiments to evaluate the similarity of the transcriptional responses induced by ABA and pyrabactin treatments. For microarray, tissue was prepared and RNA extracted from Columbia wild type seeds sown on 0.5×MS media (˜2500 seeds per 150 mm plate) containing either 1 μM ABA, 25 μM pyrabactin, 25 μM 2,4-Dinitrophenol (DNP), 1 μM cycloheximide, 2 μM methotrexate or 1% DMSO control plates (all chemicals are dissolved in DMSO). The concentrations utilized for these experiments were normalized for germination inhibition activity by dose curve analyses, i.e. the amount of both compounds required to ensure 100% inhibition of germination when scored 3 days post-imbibition. ABA (±stereoisomers), DNP, cycloheximide and methotrexate were purchased from Sigma Aldrich. Seeds were stratified for 4 days and then incubated in the dark at room temperature for 24 hours. […]

[3] = target: T2, PYL2-HAB1 (Arabidopsis thaliana, UniProt O80992); assay: Yeast two-hybrid BD-PYL2 / AD-HAB1 interaction, X-gal stain; type: cell-based; conditions: 10 μM
T2 construct: BD-PYR/PYL fusion proteins were constructed in the same manner as for BD-PYR1 above; expressed in transfected cells; host or cells: yeast (Y190, as for BD-PYR1)
T2 sequence (O80992 1-190): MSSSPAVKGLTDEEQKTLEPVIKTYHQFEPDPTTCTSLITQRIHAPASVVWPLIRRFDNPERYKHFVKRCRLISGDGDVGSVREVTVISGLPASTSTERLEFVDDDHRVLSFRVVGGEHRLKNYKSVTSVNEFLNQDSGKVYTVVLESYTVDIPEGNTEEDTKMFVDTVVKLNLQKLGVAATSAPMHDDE
T2 sequence (Q9CAJ0 23-511 partner): T1 sequence (Q9CAJ0 23-511 partner)
Procedure: as §1, with “fashion. […]” for “fashion.”

[4] = target: T3, PYL3-HAB1 (Arabidopsis thaliana, UniProt Q9SSM7); assay: Yeast two-hybrid BD-PYL3 / AD-HAB1 interaction; type: cell-based
T3 construct: BD-PYR/PYL fusion proteins were constructed in the same manner as for BD-PYR1 above; expressed in transfected cells; host or cells: yeast (Y190, as for BD-PYR1)
T3 sequence (Q9SSM7 1-209): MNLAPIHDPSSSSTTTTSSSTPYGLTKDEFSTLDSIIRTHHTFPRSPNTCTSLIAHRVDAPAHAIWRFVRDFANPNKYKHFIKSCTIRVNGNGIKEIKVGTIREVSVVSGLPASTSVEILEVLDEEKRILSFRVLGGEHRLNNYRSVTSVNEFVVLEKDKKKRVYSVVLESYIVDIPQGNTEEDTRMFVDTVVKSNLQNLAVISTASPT
T3 sequence (Q9CAJ0 23-511 partner): T1 sequence (Q9CAJ0 23-511 partner)
Procedure: as §1
(§2) To see if ABA and pyrabactin responsiveness is unique to PYR1, we tested 11 of the 13 PYL proteins as described above, using Y2H strains expressing an AD-HAB1 fusion protein and a BD-PYR/PYL fusion protein (listed at the left of FIG. 3A). BD-PYR/PYL fusion proteins were constructed in the same manner as for BD-PYR1 above. […] Of these, only Pyr1 is highly transcribed in seeds, which likely explains why mutations in Pyr1 cause the seeds to be insensitive to pyrabactin. […] However the interactions of PYLs 5-12 with the PP2Cs are indicative that the entire protein family is likely to share a similar mechanism of action involving PP2C modulation, as we describe below. Thus, we conclude that entire family modulates ABA responses via PP2C interactions.
The yeast strains expressing PYR/PYL receptors and type 2 C protein phosphatases were also used to screen HPLC-fractionated plant extracts for the presence of endogenous compounds that activate PYL/PYL receptors PYR1, PYL2, PYL3, and/or PYL4. HPLC fractionation of extracts was used to identify compounds different from abscisic acid (the known agonist). […] Purification of the agonist was achieved via multiple rounds of chromatographic separation coupled to yeast two hybrid assays that informed the fractions to move forward at each step of the purification. The structure of the purified agonist was deduced by X-ray crystallography of crystalline purified agonist.

[5] = target: T4, PYL4-HAB1 (Arabidopsis thaliana, UniProt O80920); assay: Yeast two-hybrid BD-PYL4 / AD-HAB1 interaction; type: cell-based
T4 construct: BD-PYR/PYL fusion proteins were constructed in the same manner as for BD-PYR1 above; expressed in transfected cells; host or cells: yeast (Y190, as for BD-PYR1)
T4 sequence (O80920 1-207): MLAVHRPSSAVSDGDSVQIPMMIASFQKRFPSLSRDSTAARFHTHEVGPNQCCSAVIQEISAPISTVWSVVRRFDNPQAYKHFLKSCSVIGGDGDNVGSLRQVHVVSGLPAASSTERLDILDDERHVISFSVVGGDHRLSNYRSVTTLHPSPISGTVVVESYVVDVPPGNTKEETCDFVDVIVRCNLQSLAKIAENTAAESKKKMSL
T4 sequence (Q9CAJ0 23-511 partner): T1 sequence (Q9CAJ0 23-511 partner)
Procedure: as §1
as §2, with “Thus, we conclude that entire family modulates ABA responses via PP2C interactions.” left out

[6] = plant extract screen and related commercial compounds

CC/C=C\CC1C(=O)CCC1CC(=O)OC (stereo not shown) [methyl jasmonate]
PYR1-HAB1 interaction by X-gal stain [1]: neither (−)-ABA, kinetin, 2,4-D, Gibberellic acid (GA), epi-brassinolide (BR), methyl jasmonate (meJA) or apyrabactin showed activity

O=S(=O)(NCc1ccccc1)c1ccc(Br)c2ccccc12 [apyrabactin]
effect on germination [2]: inactive analog
PYR1-HAB1 interaction by X-gal stain [1]: neither (−)-ABA, kinetin, 2,4-D, Gibberellic acid (GA), epi-brassinolide (BR), methyl jasmonate (meJA) or apyrabactin showed activity

O=C(O)COc1ccc(Cl)cc1Cl [2,4-D]
PYR1-HAB1 interaction by X-gal stain [1]: neither (−)-ABA, kinetin, 2,4-D, Gibberellic acid (GA), epi-brassinolide (BR), methyl jasmonate (meJA) or apyrabactin showed activity

c1coc(CNc2ncnc3[nH]cnc23)c1 [kinetin]
PYR1-HAB1 interaction by X-gal stain [1]: neither (−)-ABA, kinetin, 2,4-D, Gibberellic acid (GA), epi-brassinolide (BR), methyl jasmonate (meJA) or apyrabactin showed activity

C=C1C[C@]23C[C@@]1(O)CC[C@H]2[C@@]12C=C[C@H](O)[C@@](C)(C(=O)O1)[C@H]2[C@@H]3C(=O)O [Gibberellic acid]
PYR1-HAB1 interaction by X-gal stain [1]: neither (−)-ABA, kinetin, 2,4-D, Gibberellic acid (GA), epi-brassinolide (BR), methyl jasmonate (meJA) or apyrabactin showed activity

(−)-ABA
PYL2-HAB1 interaction by X-gal stain [3]: respond
PYR1-HAB1 interaction by X-gal stain [1]: neither (−)-ABA, kinetin, 2,4-D, Gibberellic acid (GA), epi-brassinolide (BR), methyl jasmonate (meJA) or apyrabactin showed activity
PYL3-HAB1 interaction by X-gal stain ([4]; 10 μM): respond
PYL4-HAB1 interaction by X-gal stain ([5]; 10 μM): respond

C=C(C(=O)O)[C@@H]1CC[C@@H](C)[C@@H]2CCC(C)=C[C@@H]21 [artemisinic acid]
PYL3 agonist activity in yeast two hybrid assays [4, 6]: PYL3/PYL4 selective agonist
PYL4 agonist activity in yeast two hybrid assays [5, 6]: PYL3/PYL4 selective agonist

CC(C)[C@@H](C)[C@@H](O)[C@H](O)[C@@H](C)[C@H]1CC[C@H]2[C@@H]3COC(=O)[C@H]4C[C@H](O)[C@H](O)C[C@]4(C)[C@H]3CC[C@]12C [epi-brassinolide]
PYR1-HAB1 interaction by X-gal stain [1]: neither (−)-ABA, kinetin, 2,4-D, Gibberellic acid (GA), epi-brassinolide (BR), methyl jasmonate (meJA) or apyrabactin showed activity
